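Interpolation was linear, between the two tested concentrations surrounding the appropriate level; five concentrations were tested over 48 hours in 96-well plates. Abbreviation: GI50, concentration required for 50% inhibition of growth. Definition used: TGI = concentration required for complete inhibition of growth.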
Assays:
Test in all cases: NCI-60 cell line screen, 48 h
NCI-H226 lung = system: NCI-H226 lung
M14 melanoma = system: M14 melanoma
BT-549 breast = system: BT-549 breast
OVCAR-5 ovarian = system: OVCAR-5 ovarian
U251 CNS = system: U251 CNS
HL-60(TB) leukemia = system: HL-60(TB) leukemia
SNB-19 CNS = system: SNB-19 CNS
SF-295 CNS = system: SF-295 CNS
EKVX NSCLC = system: EKVX NSCLC
KM12 colon = system: KM12 colon

SMILES | GI50 (NCI-H226 lung) | TGI (NCI-H226 lung) | GI50 (M14 melanoma) | TGI (M14 melanoma) | GI50 (BT-549 breast) | TGI (BT-549 breast) | GI50 (OVCAR-5 ovarian) | TGI (OVCAR-5 ovarian) | GI50 (U251 CNS) | TGI (U251 CNS) | GI50 (HL-60(TB) leukemia) | TGI (HL-60(TB) leukemia) | GI50 (SNB-19 CNS) | TGI (SNB-19 CNS) | GI50 (SF-295 CNS) | TGI (SF-295 CNS) | GI50 (EKVX NSCLC) | TGI (EKVX NSCLC) | GI50 (KM12 colon) | TGI (KM12 colon)
COc1ccc(Cn2c(Cl)c(/C=C3/C(=O)Nc4ccccc43)c3cc(OC)c(C)cc32)cc1 | 2.92 µM | 8.32 µM | 3.27 µM | 15 µM | 17.2 µM | > 100 µM | 6.06 µM | > 100 µM | 6.05 µM | > 100 µM | 4.05 µM | > 100 µM | 4.09 µM | > 100 µM | 2.92 µM | 24.2 µM | 45.5 µM | > 100 µM | 3.99 µM | 23.8 µM
O=C1Nc2cccc3cc(NCC(O)CCl)cc1c23 (stereo not given) |  | > 100 µM |  | > 100 µM |  | > 100 µM |  | > 100 µM |  | > 100 µM |  | > 100 µM |  | > 100 µM |  | > 100 µM |  | > 100 µM |  | > 100 µM
Nc1ccc(S(=O)(=O)NCc2nccs2)cc1 |  | 59 µM |  | 37.2 µM |  | 45.3 µM |  | 35.7 µM |  | 47.5 µM |  | 44 µM |  | > 100 µM |  | > 100 µM |  | 40.7 µM |  | 45 µM
O=c1[nH]c2cc3[nH]c4ncccc4c(=O)c3cc2[nH]1 |  | > 10 µM |  | > 10 µM |  | > 10 µM |  | > 10 µM |  | > 10 µM |  | > 10 µM |  | > 10 µM |  | > 10 µM |  | > 10 µM |  | > 10 µM
COc1ccc(Cl)cc1Nc1nc(C(F)(F)F)ccc1C(=O)N/N=C/c1cc(OC)c(OC)c(OC)c1 | 3.35 µM | 12.6 µM | 1.61 µM | 3.93 µM | 1.2 µM | 3.68 µM | 5.59 µM | 24.4 µM | 1.75 µM | 15.1 µM | 2.21 µM | 5.77 µM | 2.44 µM | 19.5 µM | 1.09 µM | 2.92 µM | 1.36 µM | 13.5 µM | 3.55 µM | 20.8 µM
CC1CCN(CC(=O)N2c3ccccc3Sc3cc4ccccc4cc32)CC1 |  | > 100 µM |  | > 100 µM |  | > 100 µM |  | > 100 µM |  | > 100 µM |  | > 100 µM |  | > 100 µM |  | > 100 µM |  | > 100 µM |  | > 100 µM
Cc1cc(N/N=C/c2nc(-c3ccc(Cl)cc3)oc2C)c2cc(Cl)ccc2n1 | 17 µM | 38.3 µM | 1.96 µM | 4.13 µM | 8.61 µM | 21.1 µM | 8.08 µM | 20.6 µM | 1.78 µM | 3.37 µM | 1.98 µM | 4.82 µM | 3.95 µM | 16.1 µM | 10.2 µM | 22.6 µM | 14.6 µM | 28.3 µM | 1.97 µM | 4.6 µM
CCN(CCNc1ccc(C)c2sc3ccccc3c(=O)c12)CC(C)(C)O | 15.2 µM | 33 µM | 4.21 µM | 12.2 µM | 15.3 µM | 36.6 µM | 16.8 µM | 36.5 µM | 5.67 µM | 19.4 µM | 8.9 µM | > 35.7 µM | 11.9 µM | 25.9 µM | 3.77 µM | 20.2 µM | 20.1 µM | > 66.7 µM | 4.23 µM | 14.1 µM
O=Cc1ccc(-c2cccs2)s1 |  | 4.85 µM |  | > 100 µM |  | > 100 µM |  | 69.7 µM |  | > 93.8 µM |  | > 68.1 µM |  | > 100 µM |  | > 100 µM |  | > 96.6 µM |  | > 100 µM

From PubChem BioAssay (NCI)
